From patent publication US20230321103A1, “COMPOUND FOR INHIBITING MUTANT EGFR AND USE THEREOF” (East China University of Science and Technology, priority 2020, published 2023)

Experiments:
EGFR = target: T1, EGFR (Homo sapiens, UniProt P00533); assay: Kinase spectrum evaluation, radiometric 33P-ATP kinase assay; type: biochemical; details: room temperature 2 h, 10 concentration gradients
T1 construct: purchased Reaction Biology Corporation (commissioned test)
Protocol: (§15) The substrate for the kinase reaction was placed in a freshly prepared reaction buffer and the co-factors required for the kinase reaction were added, and the buffer was prepared as: 20 mM HEPES (pH 7.5), 10 mM MgCl2, 1 mM EGTA, 0.02% Brij35, 0.02 mg/mL BSA, 0.1 mM Na3VO4, 2 mM DTT, 1% DMSO; afterwards, the kinase to be tested was added and gently shaken. The compound to be tested was dissolved in DMSO to the desired concentration and added to the above buffer containing the kinase/substrate using an autosampler Echo550. 33P-labeled ATP (33P-ATP at a final concentration of 0.01 μCi/μL) was added to the reaction system to initiate the kinase reaction at room temperature for 2 h. […] Kinase activity data were expressed as a percentage of the remaining kinase activity in the test sample, 10 concentration gradients were measured, a curve was fitted and IC50 values were calculated using Prism4 (GraphPad software).

EGFR (A763_Y764insFHEA) = target: T2, EGFR (A763_Y764insFHEA) (Homo sapiens, UniProt P00533, INS763FHEA); assay: as above; type: biochemical; details: room temperature 2 h, 10 concentration gradients
T2 construct: purchased Reaction Biology Corporation (commissioned test)
Protocol: as §15

EGFR (A763_Y764insFQEA) = target: T3, EGFR (A763_Y764insFQEA) (Homo sapiens, UniProt P00533, INS763FQEA); assay: as above; type: biochemical; details: room temperature 2 h, 10 concentration gradients
T3 construct: purchased Reaction Biology Corporation (commissioned test)
Protocol: as §15

EGFR (d746-750) = target: T4, EGFR (d746-750) (Homo sapiens, UniProt P00533, DEL746-750); assay: as above; type: biochemical; details: room temperature 2 h, 10 concentration gradients
T4 construct: purchased Reaction Biology Corporation (commissioned test)
Protocol: as §15

EGFR (d747-749/A750P) = target: T5, EGFR (d747-749/A750P) (Homo sapiens, UniProt P00533, A750P/DEL747-749); assay: as above; type: biochemical; details: room temperature 2 h, 10 concentration gradients
T5 construct: purchased Reaction Biology Corporation (commissioned test)
Protocol: as §15

EGFR (D770_N771insNPG) = target: T6, EGFR (D770_N771insNPG) (Homo sapiens, UniProt P00533, INS770NPG); assay: as above; type: biochemical; details: room temperature 2 h, 10 concentration gradients
T6 construct: purchased Reaction Biology Corporation (commissioned test)
T6 sequence (P00533 with tags, fused parts or gaps INS770NPG limits assumed): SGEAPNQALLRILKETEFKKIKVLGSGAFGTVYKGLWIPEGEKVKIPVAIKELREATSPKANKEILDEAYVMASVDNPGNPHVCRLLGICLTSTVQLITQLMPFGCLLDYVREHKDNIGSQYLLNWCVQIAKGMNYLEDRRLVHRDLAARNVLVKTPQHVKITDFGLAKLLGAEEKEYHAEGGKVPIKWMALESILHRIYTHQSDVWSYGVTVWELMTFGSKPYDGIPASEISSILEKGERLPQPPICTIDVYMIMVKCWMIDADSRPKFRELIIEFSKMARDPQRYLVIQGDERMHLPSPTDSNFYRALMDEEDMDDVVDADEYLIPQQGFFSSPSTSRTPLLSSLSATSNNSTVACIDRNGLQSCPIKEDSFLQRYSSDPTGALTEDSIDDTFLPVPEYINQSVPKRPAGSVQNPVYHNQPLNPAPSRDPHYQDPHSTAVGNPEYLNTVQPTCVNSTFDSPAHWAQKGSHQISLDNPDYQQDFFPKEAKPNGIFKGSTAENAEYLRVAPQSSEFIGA
Protocol: as §15

[1] = target: T7, EGFR (D770_N771insNPG/T790M) (Homo sapiens, UniProt P00533, INS770NPG/T790M); assay: as above; type: biochemical; details: room temperature 2 h, 10 concentration gradients
T7 construct: purchased Reaction Biology Corporation (commissioned test)
Protocol: as §15

EGFR (G719C) = target: T8, EGFR (G719C) (Homo sapiens, UniProt P00533, G719C); assay: as above; type: biochemical; details: room temperature 2 h, 10 concentration gradients
T8 construct: purchased Reaction Biology Corporation (commissioned test)
T8 sequence (P00533 25-1210 G719C): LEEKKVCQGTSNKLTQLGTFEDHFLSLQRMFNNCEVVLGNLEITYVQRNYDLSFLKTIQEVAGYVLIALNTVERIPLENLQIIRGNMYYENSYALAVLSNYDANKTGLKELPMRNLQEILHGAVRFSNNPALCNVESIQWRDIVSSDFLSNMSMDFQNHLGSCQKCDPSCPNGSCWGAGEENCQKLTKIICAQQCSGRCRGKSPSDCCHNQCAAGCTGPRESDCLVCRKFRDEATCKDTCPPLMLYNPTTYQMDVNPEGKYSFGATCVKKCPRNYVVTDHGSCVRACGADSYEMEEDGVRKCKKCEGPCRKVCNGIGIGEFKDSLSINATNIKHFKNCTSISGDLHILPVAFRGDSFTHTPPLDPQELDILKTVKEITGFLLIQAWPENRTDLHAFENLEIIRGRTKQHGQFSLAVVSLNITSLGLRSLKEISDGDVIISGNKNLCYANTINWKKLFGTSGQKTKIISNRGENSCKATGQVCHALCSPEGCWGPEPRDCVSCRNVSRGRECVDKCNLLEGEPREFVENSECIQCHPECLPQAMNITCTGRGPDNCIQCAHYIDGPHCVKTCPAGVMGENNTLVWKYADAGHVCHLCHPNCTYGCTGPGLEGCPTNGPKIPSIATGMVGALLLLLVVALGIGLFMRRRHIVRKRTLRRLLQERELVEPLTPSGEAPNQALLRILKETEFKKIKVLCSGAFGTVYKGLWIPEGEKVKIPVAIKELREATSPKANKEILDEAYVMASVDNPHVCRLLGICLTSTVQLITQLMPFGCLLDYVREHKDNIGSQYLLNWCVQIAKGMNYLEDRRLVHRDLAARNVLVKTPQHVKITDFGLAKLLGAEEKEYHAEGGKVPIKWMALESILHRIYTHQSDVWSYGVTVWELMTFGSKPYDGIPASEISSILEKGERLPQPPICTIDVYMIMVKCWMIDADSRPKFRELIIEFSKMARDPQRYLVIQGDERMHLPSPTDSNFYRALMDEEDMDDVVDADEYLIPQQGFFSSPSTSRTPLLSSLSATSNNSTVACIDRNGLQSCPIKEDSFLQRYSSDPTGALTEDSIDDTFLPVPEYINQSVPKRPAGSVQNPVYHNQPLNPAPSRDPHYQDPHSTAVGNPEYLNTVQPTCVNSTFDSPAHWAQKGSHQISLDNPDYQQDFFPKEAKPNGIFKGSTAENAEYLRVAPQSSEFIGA
Protocol: as §15

EGFR (G719S) = target: T9, EGFR (G719S) (Homo sapiens, UniProt P00533, G719S); assay: as above; type: biochemical; details: room temperature 2 h, 10 concentration gradients
T9 construct: purchased Reaction Biology Corporation (commissioned test)
Protocol: as §15

EGFR (L858R) = target: T10, EGFR (L858R) (Homo sapiens, UniProt P00533, L858R); assay: as above; type: biochemical; details: room temperature 2 h, 10 concentration gradients
T10 construct: purchased Reaction Biology Corporation (commissioned test)
Protocol: as §15

ERBB2 (D769Y) = target: T11, ERBB2 (D769Y) (Homo sapiens, UniProt P04626, D769Y); assay: as above; type: biochemical; details: room temperature 2 h, 10 concentration gradients
T11 construct: purchased Reaction Biology Corporation (commissioned test)
T11 sequence (P04626 23-1255 D769Y): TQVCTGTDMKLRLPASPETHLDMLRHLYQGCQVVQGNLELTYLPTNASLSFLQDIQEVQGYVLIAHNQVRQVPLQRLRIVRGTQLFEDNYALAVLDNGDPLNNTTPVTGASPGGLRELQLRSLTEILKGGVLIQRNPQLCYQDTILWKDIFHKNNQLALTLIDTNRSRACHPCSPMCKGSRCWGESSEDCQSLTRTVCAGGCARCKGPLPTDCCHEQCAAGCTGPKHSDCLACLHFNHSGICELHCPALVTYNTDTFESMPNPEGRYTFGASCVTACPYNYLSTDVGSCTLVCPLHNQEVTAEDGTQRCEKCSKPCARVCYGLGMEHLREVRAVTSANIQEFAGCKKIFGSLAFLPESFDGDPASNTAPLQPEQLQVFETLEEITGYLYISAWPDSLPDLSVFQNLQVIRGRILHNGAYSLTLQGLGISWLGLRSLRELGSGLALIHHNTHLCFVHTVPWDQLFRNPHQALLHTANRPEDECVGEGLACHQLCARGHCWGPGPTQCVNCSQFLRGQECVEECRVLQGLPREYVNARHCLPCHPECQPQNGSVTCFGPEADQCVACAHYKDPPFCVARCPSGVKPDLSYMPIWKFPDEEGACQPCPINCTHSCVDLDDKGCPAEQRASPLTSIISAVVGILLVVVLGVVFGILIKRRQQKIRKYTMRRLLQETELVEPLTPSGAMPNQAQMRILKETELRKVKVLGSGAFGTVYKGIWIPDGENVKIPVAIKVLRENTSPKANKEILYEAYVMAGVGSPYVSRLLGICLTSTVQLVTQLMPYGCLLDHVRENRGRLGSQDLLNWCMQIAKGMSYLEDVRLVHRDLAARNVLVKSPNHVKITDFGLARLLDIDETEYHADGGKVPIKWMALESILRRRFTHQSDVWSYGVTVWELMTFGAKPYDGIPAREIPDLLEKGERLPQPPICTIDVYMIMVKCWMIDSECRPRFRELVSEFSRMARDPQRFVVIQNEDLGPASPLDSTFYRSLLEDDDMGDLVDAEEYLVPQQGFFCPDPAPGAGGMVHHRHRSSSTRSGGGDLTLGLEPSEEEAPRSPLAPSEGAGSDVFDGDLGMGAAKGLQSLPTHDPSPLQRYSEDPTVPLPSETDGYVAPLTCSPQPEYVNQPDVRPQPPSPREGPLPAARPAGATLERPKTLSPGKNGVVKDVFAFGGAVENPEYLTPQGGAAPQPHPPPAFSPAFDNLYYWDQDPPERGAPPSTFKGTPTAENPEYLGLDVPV
Protocol: as §15

ERBB2 (V777_G778insCG) = target: T12, ERBB2 (V777_G778insCG) (Homo sapiens, UniProt P04626, INS777CG); assay: as above; type: biochemical; details: room temperature 2 h, 10 concentration gradients
T12 construct: purchased Reaction Biology Corporation (commissioned test)
T12 sequence (P04626 with tags, fused parts or gaps INS777CG limits assumed): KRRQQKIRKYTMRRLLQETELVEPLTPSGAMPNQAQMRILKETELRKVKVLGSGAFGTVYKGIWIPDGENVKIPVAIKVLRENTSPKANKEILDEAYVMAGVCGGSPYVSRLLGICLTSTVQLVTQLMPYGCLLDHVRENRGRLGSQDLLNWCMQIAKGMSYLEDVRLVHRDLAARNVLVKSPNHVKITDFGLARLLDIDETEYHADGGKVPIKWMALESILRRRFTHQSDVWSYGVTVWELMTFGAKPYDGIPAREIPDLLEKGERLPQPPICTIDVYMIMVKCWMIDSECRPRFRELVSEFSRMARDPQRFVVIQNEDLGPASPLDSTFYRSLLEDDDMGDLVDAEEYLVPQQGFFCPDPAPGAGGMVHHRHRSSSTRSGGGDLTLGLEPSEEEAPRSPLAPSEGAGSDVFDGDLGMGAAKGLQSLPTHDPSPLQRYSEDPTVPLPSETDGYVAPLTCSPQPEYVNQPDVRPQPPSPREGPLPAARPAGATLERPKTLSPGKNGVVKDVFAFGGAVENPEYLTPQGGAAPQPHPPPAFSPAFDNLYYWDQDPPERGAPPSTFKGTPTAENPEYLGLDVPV
Protocol: as §15

ERBB2 (V777L) = target: T13, ERBB2 (V777L) (Homo sapiens, UniProt P04626, V777L); assay: as above; type: biochemical; details: room temperature 2 h, 10 concentration gradients
T13 construct: purchased Reaction Biology Corporation (commissioned test)
T13 sequence (P04626 23-1255 V777L): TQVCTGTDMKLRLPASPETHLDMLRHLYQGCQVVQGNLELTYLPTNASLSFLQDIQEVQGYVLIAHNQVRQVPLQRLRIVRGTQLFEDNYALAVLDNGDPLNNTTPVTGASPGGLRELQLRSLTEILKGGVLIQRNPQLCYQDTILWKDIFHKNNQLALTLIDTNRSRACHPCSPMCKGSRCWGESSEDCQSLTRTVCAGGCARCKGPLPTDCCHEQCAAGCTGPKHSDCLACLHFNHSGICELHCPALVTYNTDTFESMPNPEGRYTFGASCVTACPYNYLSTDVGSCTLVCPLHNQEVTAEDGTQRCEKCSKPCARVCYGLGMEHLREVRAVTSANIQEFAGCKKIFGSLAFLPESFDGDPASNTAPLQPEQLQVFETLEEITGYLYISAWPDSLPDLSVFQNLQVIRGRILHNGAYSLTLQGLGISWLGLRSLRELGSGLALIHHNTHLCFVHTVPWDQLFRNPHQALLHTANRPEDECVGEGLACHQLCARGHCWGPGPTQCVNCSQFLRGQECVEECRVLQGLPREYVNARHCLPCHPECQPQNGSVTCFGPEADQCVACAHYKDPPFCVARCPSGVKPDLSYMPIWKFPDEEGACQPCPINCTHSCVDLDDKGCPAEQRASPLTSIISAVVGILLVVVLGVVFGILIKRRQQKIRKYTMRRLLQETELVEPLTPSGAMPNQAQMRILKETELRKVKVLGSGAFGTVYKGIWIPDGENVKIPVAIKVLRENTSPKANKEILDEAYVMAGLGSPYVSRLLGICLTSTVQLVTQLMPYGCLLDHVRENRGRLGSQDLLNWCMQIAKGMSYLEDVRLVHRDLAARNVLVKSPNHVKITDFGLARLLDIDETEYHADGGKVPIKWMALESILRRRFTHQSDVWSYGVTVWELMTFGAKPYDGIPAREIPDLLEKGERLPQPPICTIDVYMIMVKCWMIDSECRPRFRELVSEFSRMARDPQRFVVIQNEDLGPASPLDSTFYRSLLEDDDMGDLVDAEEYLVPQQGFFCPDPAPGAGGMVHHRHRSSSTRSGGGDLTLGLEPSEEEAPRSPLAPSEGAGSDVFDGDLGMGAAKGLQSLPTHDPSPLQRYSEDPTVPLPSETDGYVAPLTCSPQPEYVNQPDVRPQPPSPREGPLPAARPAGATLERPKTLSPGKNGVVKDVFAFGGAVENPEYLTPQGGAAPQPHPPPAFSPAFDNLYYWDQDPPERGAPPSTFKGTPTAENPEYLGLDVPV
Protocol: as §15

[2] = tested on: EGFR D770_N771insNPG BaF3; assay: Proliferation inhibition assay on stable cell lines (CTG Assay); type: cell-based; details: Mus musculus, 72 hours, CellTiter-Glo
Source text: (§1) Ba/F3, a mouse pro-B cell line dependent on interleukin-3, is a common system for studying kinases and kinase inhibitors. Recombinant expression of some protein kinases can make Ba/F3 cells no longer dependent on IL-3 for growth, and based on such properties, the inhibition of a compound on the proliferation of Ba/F3 cells expressing different target kinases can be detected, so as to reflect inhibitory effects of the compound on different kinase targets at the cellular level for kinase inhibitor screening.
(§2) CellTiter-Glo® Luminescent Cell Viability Assay was employed in this experiment to detect cell proliferation, and the specific principles are as follows:
(§3) Adenosine Tri-Phosphate (ATP) is a common energy carrier used in various life activities in nature and is the smallest unit of energy storage and transfer. In the CellTiter-Glo™ Live Cell Assay Kit, […] are used as detectors, which require the participation of ATP to generate light signals. After the CellTiter-Glo™ reagent is added to the cells, the luminescence value is measured. The light signal is proportional to the amount of ATP in the system, which is in turn positively correlated with the number of living cells. Therefore, by measuring the ATP content using the CellTiter-Glo kit, the viability of the cells and thus the level of cell proliferation can be reflected.
(§4) Cells were removed from the liquid nitrogen, quickly thawed in a water bath at 37 degree Celsius, lyophilization tubes were centrifuged at 1000 rpm, the supernatant of the lyophilized solution was discarded, and the cells were resuspended in RPMI1640+10% FBS medium and incubated in a cell culture incubator at 37 degree Celsius with a cell culture density maintaining at 2*10e5 to 2*10e6/ml at all times.
(§5) 1) The compound were serially diluted in DMSO in a compound formulation plate with a starting concentration of 1 or 10 mM and a gradient dilution of 3.
(§6) 2) A new compound formulation plate was prepared, 198 ul of RPMI160+10% FBS medium was added to each well, 2 ul/well of compound from the previous gradient-diluted compound formulation plate was transferred to this plate and mixed well, so that the highest starting compound concentration in this plate was […], and diluted by gradient (this plate was a 10* compound concentration dilution plate).
(§7) 1) Cells in logarithmic growth phase were taken, the supernatant was discarded by centrifugation, and the cells were re-suspended in a fresh RPMI1640 medium at a cell density of 2*10e4/ml.
(§8) 2) The re-suspended cells were inoculated into 2 96-well cell culture plates with white walls and clear bottom at 100 ul of cell suspension/well, and incubated overnight in a 37° C. cell incubator.
(§9) 3) The next day, one of the 96-well plates inoculated with cells were taken, 100 µl/well of cell titer glo assay reagent was added for 60 minutes, the value was read and defined as G0 data.
(§10) 4) Another parallel plate was taken, 11.1 ul/well of compound from the previously diluted 10* compound concentration dilution plate was added to this plate, so that the final concentration of compound in the cell assay plate started from 0.5 or 1 uM, which was 3-fold diluted for 9 concentration gradients. Additional DMSO control wells were set, and incubated in a 37° C. cell incubator for another 72 hours.
(§11) 5) The 96-well plate, in which cells were treated by the compound for 72 hrs, were taken from the incubator, 100 ul/well of cell titer glo assay reagent was added for 60 minutes, the value was read and defined as G3 data.
(§12) 6) The cell proliferation rate corresponding to each well was calculated according to the following formula
(§13) % prolifation=(G3 of the well of the compound to be tested−mean value of G)/(mean value of G3 of the DMSO control well−mean value of G0)*100.
(§14) Y=Bottom+(Top−Bottom)/(1+10^((Log IC50−X)*HillSlope))

[3] = tested on: EGFR D770_N771insSVD BaF3; assay: as above; type: cell-based; details: Mus musculus, 72 hours, CellTiter-Glo
Source text: as §1, §2, §3, §4, §5, §6, §7, §8, §9, §10, §11, §12, §13, §14

EGFR G719A BaF3 = assay: as above; type: cell-based; details: Mus musculus, 72 hours, CellTiter-Glo
Source text: as §1, §2, §3, §4, §5, §6, §7, §8, §9, §10, §11, §12, §13, §14

EGFR H773_V774insH BaF3 = assay: as above; type: cell-based; details: Mus musculus, 72 hours, CellTiter-Glo
Source text: as §1, §2, §3, §4, §5, §6, §7, §8, §9, §10, §11, §12, §13, §14

EGFR L861Q BaF3 = assay: as above; type: cell-based; details: Mus musculus, 72 hours, CellTiter-Glo
Source text: as §1, §2, §3, §4, §5, §6, §7, §8, §9, §10, §11, §12, §13, §14

[4] = tested on: EGFR V769_D770insASV BaF3; assay: as above; type: cell-based; details: Mus musculus, 72 hours, CellTiter-Glo
Source text: as §1, §2, §3, §4, §5, §6, §7, §8, §9, §10, §11, §12, §13, §14

EGFR (D761Y) = target: T14, EGFR (D761Y) (Homo sapiens, UniProt P00533, D761Y); assay: Kinase spectrum evaluation, radiometric 33P-ATP kinase assay; type: biochemical; details: room temperature 2 h, 10 concentration gradients
T14 construct: purchased Reaction Biology Corporation (commissioned test)
Protocol: as §15

EGFR (D770GY) = target: T15, EGFR (D770GY) (Homo sapiens, UniProt P00533, D770Y/INS769G); assay: as above; type: biochemical; details: room temperature 2 h, 10 concentration gradients
T15 construct: purchased Reaction Biology Corporation (commissioned test)
Protocol: as §15

EGFR (G719D) = target: T16, EGFR (G719D) (Homo sapiens, UniProt P00533, G719D); assay: as above; type: biochemical; details: room temperature 2 h, 10 concentration gradients
T16 construct: purchased Reaction Biology Corporation (commissioned test)
Protocol: as §15

EGFR (L861Q) = target: T17, EGFR (L861Q) (Homo sapiens, UniProt P00533, L861Q); assay: as above; type: biochemical; details: room temperature 2 h, 10 concentration gradients
T17 construct: purchased Reaction Biology Corporation (commissioned test)
Protocol: as §15

IC50 (EGFR (A763_Y764insFHEA)) [nM]	IC50 (EGFR (A763_Y764insFQEA)) [nM]	IC50 (EGFR (D770_N771insNPG)) [nM]	IC50 [1] [nM]	IC50 (EGFR (G719C)) [nM]	IC50 (EGFR (G719S)) [nM]	IC50 (ERBB2 (D769Y)) [nM]	IC50 (ERBB2 (V777_G778insCG)) [nM]	IC50 (ERBB2 (V777L)) [nM]	GI50 [2] [nM]	GI50 [3] [nM]	GI50 (EGFR G719A BaF3) [nM]	GI50 (EGFR H773_V774insH BaF3) [nM]	GI50 (EGFR L861Q BaF3) [nM]	GI50 [4] [nM]	SMILES	other results
0.4	0.29	0.23	0.49	0.51	0.36	0.35	0.22	0.31	0.99	5.59	0.58	5.42	0.98	1.63	C=CC(=O)Nc1cccc(-n2c(=O)c(-c3ccccc3)nc3cnc(Nc4ccc(N5CCN(C)CC5)cc4OC)nc32)c1 [Compound 1]	IC50 (EGFR): 0.08 nM; IC50 (EGFR (d746-750)): 0.84 nM; IC50 (EGFR (d747-749/A750P)): 0.29 nM; IC50 (EGFR (L858R)): 0.17 nM
–	–	–	–	–	–	0.21	0.09	0.21	–	–	–	–	–	–	C=CC(=O)N1CCC(Oc2cc3c(Nc4ccc(Cl)c(Cl)c4F)ncnc3cc2OC)CC1 [Poziotinib]	–
–	–	–	–	–	–	–	–	–	1.53	4.73	4.66	4.44	2.55	1.49	C=CC(=O)Nc1cc(Nc2ncc(C(=O)OC(C)C)c(-c3cn(C)c4ccccc34)n2)c(OC)cc1N(C)CCN(C)C [TAK788, Mobocertinib]	–
0.67	0.35	0.52	0.67	1.09	1.45	0.79	0.35	0.78	–	–	–	–	–	–	C=CC(=O)Nc1cccc(-n2c(=O)c(-c3ccccc3)nc3cnc(Nc4ccc(N(C)CCN(C)C)cc4OC)nc32)c1 [compound A]	IC50 (EGFR (D761Y)): 0.34 nM; IC50 (EGFR (D770GY)): 0.28 nM; IC50 (EGFR (G719D)): 2.19 nM; IC50 (EGFR (L861Q)): 2.05 nM
